Assay results published in patent US20120231015A1, “FRAGILE X MENTAL RETARDATION PROTEIN (FMRP), COMPOSITIONS, AND METHODS RELATED THERETO” (EMORY UNIVERSITY, priority 2009, published 2012).
“Also recorded” adds a separate entry of the source.

Key:
cortical SNS = assay: Metabolic labeling of cortical SNS with [35S]methionine (synaptic translation rates); format: cell-based, mouse; settings: for translation rates ([35S] incorporation in 5 min): antagonist 10 μM; for translation rates (amino acid incorporation): antagonist 50 μM
Protocol: (§1) Cortical SNS were prepared as described previously (Muddashetty et al., 2007) and treated with the indicated antagonists or solvent for 5 min at 37° C., for some experiments followed by DHPG (100 μM) for 15 min at 37° C. as indicated, and with puromycin (2 mM) for 30 min at 37° C. Metabolic labeling was performed with 100 μCi Pro-Mix, L-(35S) in vitro cell labeling mix (GE Healthcare) for 5 min. Triplicate samples from time point 0 and 5 min were washed once in homogenization buffer, followed by lysis (100 mM Tris-HCl, pH 7.4, 150 mM NaCl, 0.5% deoxycholate, and 1% Triton X-100, supplemented with proteinase inhibitors) and TCA precipitation. 35S-incorporation levels were estimated by scintillation counting.

[1] = tested on: primary hippocampal neurons; assay: Constitutive AMPAR internalization assay; format: cell-based, mouse; settings: WT neurons
p110beta mRNA = p110beta mRNA in polysomal fractions of sucrose gradients, cortical SNS; format: cell-based, mouse
Protocol: Gradient preparation, centrifugation, fractionation, RNA purification, and qRT-PCRs were performed as described previously (Muddashetty et al., 2007).
as §1, with “[…],” for “for some experiments followed by DHPG (100 μM) for 15 min at 37° C. as indicated,”

PI3K (p110beta) = assay: In vitro PI3K assay with immunoprecipitated p110beta from treated cortical synaptoneurosomes (SNS); format: cell-based, mouse
Protocol: In vitro PI3K assays were performed as described previously (Ye et al., (2000) Cell 103:919-930) using p110beta antibody. In vitro extracellular signal-regulated kinase (ERK) activity assays were performed using the p44/42 MAP Kinase Assay kit from Cell Signaling Technology according to the manual. HEK293T cells were cultured in DMEM supplemented with 10% FBS. Fmr1-specific siRNA was transfected using LF2000 (Invitrogen) according to the manual. At 48 h after transfection, cells were scraped from the dish with PBS, divided into two equal parts for PI3K and ERK activity assays, respectively. […] Cortical synaptoneurosomes (SNS) were prepared as described previously (Muddashetty et al., (2007) J Neurosci 27:5338-5348.). SNS were split in two equal parts for PI3K and ERK activity assays. Cells and SNS were lysed in kinase assay buffers (for PI3K assay: 50 mM Tris-HCl, pH 7.4, 40 mM NaCl, 1 mM EDTA, 0.5% Triton X-100, 1.5 mM Na3VO4, 50 mM NaF, 10 mM sodium pyrophosphate, and 10 mM sodium β-glycerol phosphate, supplemented with proteinase inhibitors; for ERK activity assay: lysis buffer provided by Cell Signaling Technology). Lysates were cleared by centrifugation, and protein concentrations were determined by the Bradford method. For both kinase assays, the same amount of protein was used for wild-type (WT) and Fmr1 KO SNS or sifmr1 knockdown (KD) and sictr HEK293T cells, respectively. For measuring PI3K activity following various treatments, SNS were incubated for 10 min at 37° C. with either 100 μM (S)-3,5-dihydroxyphenylglycine (DHPG) or 10 μM 2-methyl-6-(phenylethynyl)-pyridine (MPEP) or for 1 h at 37° C. with tat-mGluR5-CT or tat-mGluR5-MUT peptides (5 μM) before lysis. For PI3K assays with cortical neurons, cells at 11d in vitro (DIV) were transfected with 10 μl of control adenovirus or adenovirus carrying short-hairpin PIKE-L (as described previously by Tang et al., (2008) Nat Cell Biol 10:698-706.) for 48 h. PI3K assays were performed with 300 μg of protein as described above. To confirm PIKE-L knockdown, 80 μg of protein was used for Western blot analyses using anti-PIKE-L antibody.

PDK1 = settings: hippocampal slices from Fmr1 KO mice; cited from earlier work
p110beta = p110beta protein levels by Western blot in cortical SNS; format: cell-based, mouse; settings: DHPG 15 min, 50 μM
Protocol: SDS-PAGE and Western blots were performed as described previously (Muddashetty et al., 2007) and quantified using NIH ImageJ. Signal intensities of p110beta- and FMRP-specific bands were normalized to tubulin signal on the same blot. Signal intensities of phospho-proteins were normalized to total levels of the respective protein on the same blot. For this purpose, Western blots were stripped after detection with the phospho-specific antibodies using 100 mM β-mercaptoethanol and 2% SDS in 62.5 mM Tris-HCl, pH 6.8, at 50° C. for 30 min and, after extensive washing, detected with the respective antibody specific for the total protein.
as §1, with “[…],” for “for some experiments followed by DHPG (100 μM) for 15 min at 37° C. as indicated,”

rat hippocampal neurons = settings: siRNA-mediated FMRP deficiency; cited from earlier work

In the case of `Cc1cc(C(=O)O)ccc1[C@H](N)C(=O)O` [LY367385], the “translation rates ([35S] incorporation in 5 min)” value (cortical SNS; Fmr1 KO SNS) was “reduced synaptic Fmr1 KO translation; also recorded: significantly decreased translation rates”.
With `O=c1cc(N2CCOCC2)oc2c(-c3ccccc3)cccc12` [LY294002, 2-(4-morpholinyl)-8-phenyl-1(4H)-benzopyran-4-one] the “translation rates (amino acid incorporation)” value (cortical SNS; Fmr1 KO SNS) was “could specifically rescue the excessive synaptic translation; also recorded: significantly reduced amino acid incorporation rates” and the “constitutive endocytosis of AMPARs in distal dendrites (median)” value ([1]; LY294002 50 μM for 1 h) was 35.3.
In the case of `COc1ccc(C[C@H](N)C(=O)N[C@H]2[C@@H](O)[C@H](n3cnc4c(N(C)C)ncnc43)O[C@@H]2CO)cc1` [puromycin], the “association of p110beta mRNA with synaptoneurosomal polysomes” value (p110beta mRNA; SNS, puromycin 2 mM, 30 min at 37° C.) was “sensitive to puromycin treatment”.
In the case of `N[C@@H](CCCP(=O)(O)O)C(=O)O` [APV], the “translation rates (amino acid incorporation)” value (cortical SNS; Fmr1 KO SNS) was “failed to reduce augmented translation in KO” and the “translation, genotype dependence of effect” value (cortical SNS; WT and Fmr1 KO SNS, APV 50 μM) was “affected translation similarly across genotypes”.
For `N[C@H](C(=O)O)c1cc(O)cc(O)c1` [DHPG, (S)-3,5-dihydroxyphenylglycine], the PI3K activity (PI3K (p110beta); Fmr1 KO SNS, DHPG 100 μM, 10 min) is given as “failed to activate PI3K; also recorded: significant reduction of PI3K activity; also recorded: decreased PI3K activity”, the PI3K activity (PI3K (p110beta); WT SNS, DHPG 100 μM, 10 min) is given as “twofold increase” and the “phosphorylation of PDK1” value (PDK1) is given as “does not induce the phosphorylation of PDK1”. For the same molecule, the DHPG-induced translational activation (cortical SNS; Fmr1 KO SNS, no antagonist) was “occluded”, the p110beta protein expression (p110beta; Fmr1 KO SNS) was “occluded; also recorded: does not increase protein expression” and the p110beta protein levels (p110beta; WT SNS) was “led to increased p110beta protein levels; also recorded: increases p110beta protein levels”. For the same molecule, the “p110beta mRNA in puromycin-sensitive polysomal fractions (translation)” value (p110beta mRNA; Fmr1 KO SNS, DHPG 15 min, 50 μM) was “occluded” and the “p110beta mRNA in puromycin-sensitive polysomal fractions” value (p110beta mRNA; WT SNS, DHPG 15 min, 50 μM) was “induced a significant shift of p110beta mRNA into puromycin-sensitive fractions; also recorded: leads to a shift of p110beta mRNA into puromycin-sensitive fractions”.
With `O=c1cc(N2CCNCC2)oc2c(-c3ccccc3)cccc12` [LY303511, 2-(1-piperazinyl)-8-phenyl-4H-1-benzopyran-4-one] the translation rates (cortical SNS; SNS, inactive analog of LY294002) was “did not show any effect; also recorded: did not alter translation rates”.
In the case of `Cc1cccc(C#Cc2ccccc2)n1` [MPEP, 2-methyl-6-(phenylethynyl)-pyridine], the PI3K activity (PI3K (p110beta); Fmr1 KO SNS, MPEP 10 μM, 10 min at 37° C.) was “significantly reduced PI3K function; also recorded: significantly reduces PI3K activity”, the PI3K activity (PI3K (p110beta); WT SNS, MPEP 10 μM, 10 min at 37° C.) was “no significant effect” and the “translation rates ([35S] incorporation in 5 min)” value (cortical SNS; Fmr1 KO SNS) was “reduced synaptic Fmr1 KO translation; also recorded: significantly decreased translation rates”. For the same molecule, the “levels of internalized AMPARs” value (rat hippocampal neurons) was “rescued increased levels of internalized AMPARs”.
In the case of `N#CC(=C(N)Sc1ccccc1N)C(C#N)=C(N)Sc1ccccc1N` [U0126, 1,4-diamino-2,3-dicyano-1,4-bis(o-aminophenylmercapto)butadiene], the “DHPG-induced translational activation after antagonist pretreatment” value (cortical SNS; Fmr1 KO SNS, DHPG 100 μM, 15 min) was “did not rescue DHPG-stimulated translation; also recorded: but not by ERK1/2 inhibition”, the “DHPG-induced translational activation after antagonist pretreatment” value (cortical SNS; WT SNS, DHPG 15 min, 100 μM) was “abolished DHPG-induced translational increase; also recorded: abolish” and the “translation rates, genotype dependence of effect” value (cortical SNS; WT and Fmr1 KO SNS, U0126 20 μM) was “reduced protein synthesis levels independently of genotype to the same extent; also recorded: did not show a genotype-specific effect on translation rates”. The “constitutive endocytosis of AMPARs in distal dendrites (median)” value ([1]; U0126 20 μM for 1 h) was 43.8.
